Where “and” joins values, the source holds several entries; their conditions need not be identical. Equal values may be shown once. Read-outs that look alike come from different tables or passages of the source. Non-standard residues stand in square brackets, D forms with d. Residues, ends and D or L forms follow the SMILES beside them. *: point of attachment. Dolaproine = CO[C@@H]([C@@H]1CCCN1)[C@@H](C)C(=O)O; Dil = CC[C@H](C)[C@H](NC)[C@@H](CC(=O)O)OC; X1 = C[C@@H](N*)[C@@H](O)c1ccccc1; NMeV = CN[C@H](C(=O)O)C(C)C
Tests used:
[1] = system: CAL27 WT and CAL27 PIK3CA H1047R cells; test: Cell culture MMAE sensitivity of isogenic cell lines; type: cell-based, human; conditions: CAL27 WT vs CAL27 PIK3CA H1047R
Description: Specific Comment 3: “Line 266: fig 3e: the **** significance; is this IR+MMAE vs IR, or vs MMAE? Please […]
Response: Reviewer #2 raised a similar comment, (Rev #2, Comment 5). As mentioned, the statistical analysis in our original submission compared all 4 experimental groups. Based on Reviewers #2 & #4 […]
Importantly for scientific rigor & reproducibility , we would highlight that MMAE ± IR tumor response studies in syngeneic mice were replicated […]
Specific Comment 4: “Experiments with RAG mice showing that CD8+ T-cells are involved in the response to MMAE+IR are intriguing. A mechanistic explanation is however lacking. If T-cells are crucial for tumor control under IR, why is there such good response in CAL27 xenografts in nude mice with monotherapy only?” […]
adaptive immunity on durable tumor control of syngeneic tumors treated with MMAE + IR. Using depleting […]
mediated durable tumor control of MMAE radiosensitization . […]
Response: In cell culture testing, MOC1 and MOC2 cells were sensitive to MMAE and CDX3379-MMAE as measured by Alamar Blue assay. For Alamar Blue assay cytotoxicity, we measured cell viability at 72 hr of […]

[2] = system: 4NQO-induced tongue tumors; conditions: 10 nmoles ACPP-MMAE x 2 doses + whole tongue IR 5 Gy x 2 at week 20; tongues at week 22; vs untreated control
Protocol: 4-Nitroquinoline N-oxide (4NQO, Sigma Aldrich-N8141) was dissolved in propylene glycol as a stock solution (4 mg/ml) and further diluted in drinking water to a final concentration of 50 μg/ml. […] Since the entire tongue was exposed to 4NQO, the whole tongue was delineated and given 5 Gy × 2 using PXI SmART irradiator with 225 kVp X-ray tube. IR was delivered as 2 parallel opposed fields. All mice were given a full oral cavity examination biweekly, and any observed pathological changes were documented. On week 22, animals were euthanized, and tissues and oral pharynx were fixed in PAXgene tissue FIX (Qiagen) at room temperature for 12 h. Tissues were then transferred to 70% ethanol and paraffin embedded. Tongue sections were H&E stained and histopathologically assessed for the number and size of carcinoma lesions per tongue by a qualified Pathologist (A.A.M.) who was blinded manner to treatment of each slide.

[3] = Blood clearance of Cy5-labeled CDX3379-MMAE (blood Cy5); type: in vivo, Nude mice; conditions: immune-deficient and immune-competent mice, i.v. Cy5-labeled CDX3379-MMAE, Cy5 as surrogate marker
Protocol: All animal work was done in compliance with the University of California San Diego Institutional Animal Use and Care Committee under protocol #S15290. Mice were housed in individually ventilated and micro-isolator cages supplied with acidified water and fed 5053 irradiated PicoLab Rodent Diet 20. Temperature for laboratory mice in housing was 18–23 °C with humidity 40–60%. Housing room is maintained on a 12-h light/dark cycle. […] For imaging, mice were anesthetized (1:1 mixture of 100 mg/ml of ketamine and 5 mg/ml of midazolam). Animals were imaged using a Maestro Small Animal Imager (CRI) with excitation filter of 607/36 and 633 nm long pass emission filter with dichroic filter tuned to 670 nm for Cy5 images only. Imaging was done both with skin on and after skin removal to decrease autofluorescence and scattering. Exposure time for Cy5 signal capture for tumor models was as follows: CAL27 for 800 ms, MOC1 for 200 ms and MOC2 for 1500 ms.

B16 tumors = conditions: status at the day printed in the same line, one line per mouse
Protocol: MOC1, B16, LL/2, and MC38 tumor cells were injected subcutaneously into the hindlimbs of 6-week-old female C57BL/6 albino mice in 100 µl of 1:1 Matrigel (BD) and PBS solution. Fractionated IR was delivered focally to the tumor-bearing hindlimbs (3 Gy to MC38 tumors and 5 Gy to LL/2 and B16 tumors) as indicated in figure legends using a PXI X-RAD 225 XL irradiator at maximal dose rate of 3 Gy/min with a beam-conditioning aluminum filter (Precision X-ray Irradiation). For RAG1 KO studies, 6-week-old female Rag1^tm1Mom mice were injected subcutaneously with tumor cells in their hindlimbs (Jackson Labs). For CD8 depletion studies, mice were i.p. injected with anti-CD8 (BioXCell #BE0117) at 10 mg/kg on days −6, −5 and −4 tumor cell implant and then weekly starting on day after tumor cells were injected or control antibody. […] Tumor volumes were measured and calculated using the formula as ½ * length * width^2. Mice were sacrificed when tumor volume reached >1500 mm^3, maximal tumor volume approved on our protocol for subcutaneous tumors.

Question: For CC[C@H](C)[C@@H]([C@@H](CC(=O)N1CCC[C@H]1[C@H](OC)[C@@H](C)C(=O)N[C@H](C)[C@@H](O)c1ccccc1)OC)N(C)C(=O)[C@@H](NC(=O)[C@@H](NC)C(C)C)C(C)C [MMAE, monomethyl auristatin E] (H-[NMeV]V[Dil][Dolaproine]-X1), which “MMAE sensitivity of isogenic cell lines” value [1] is on record?
Answer: did not see an appreciable difference in MMAE sensitivity between the isogenic cell lines

Question: With “cyclo(RGD)fc-MC-HN-peg8-e9-oPLGC(Me)AG-r9-c-(MC-VC-PABC-MMAE)-CONH2 [ACPP-MMAE]” as the molecule, how does the total tumor burden [2] read?
Answer: significantly decreased total tumor burden

Question: With “CDX3379-MMAE: anti-HER3 antibody CDX3379 with 4 MMAE per antibody via MC-VC-PABC linker, labeled with Cy5” as the molecule, how does the “time at which blood Cy5 signal returned to background fluorescence” value [3] read?
Answer: ≤ 7 days

Question: What about the “Survival curve, status” value (B16 tumors; CDX3379-MMAE + IR + αPD1) of the same molecule?
Answer: 0

Question: What about the “Survival curve, status” value (B16 tumors; CDX3379-MMAE + IR) of the same molecule?
Answer: 0 and 1
